Reference: US11926626B2, “Heterocyclic GLP-1 agonists” (Gasherbrum Bio, Inc., priority 2020, dated 2024)
Like-named read-outs stand apart in the source and are kept apart here.

Molecular target: GLP-1 Receptor (Homo sapiens, UniProt P43220)
Assay: GLP-1R agonist cAMP stimulation assay (HEK293/GLP1R/CRE-Luc cells, HTRF cAMP)
Assay type: cell-based
Protocol: Activation of GLP-1 receptor is known to stimulate cyclic AMP (cAMP) production in cells which indicates primary coupling to the Gαs subunit of the G protein heterotrimeric complex.
To optimize functional activity directed toward Gαs coupling, a HEK293/CRE-Luc cell line developed by HDB stably expressing the GLP-1 Receptor was used. […] 1×10^5 cells/mL HEK293/GLP1R/CRE-LUC(HD Biosciences) cell suspensions prepared with assay buffer[DPBS containing 0.5 mM IBMX (Sigma, Cat #I5879) and 0.1% BSA (GENVIEW, Cat #FA016-100g)], 10 uL cell suspensions were added to each well of previous generated assay plate which already contains 50 nl compound at 200×concentration using ThermoFisher Multidrop Combi (1000 cells/well). Seal the plate and incubate at 37° C. with 5% CO2 for 30 min.
After incubation the cAMP assay signal was generated using cAMP dynamic 2 Kit (Cisbio). 5 μL cAMP-d2 working solution was added to each well, followed with 5 μL Anti-cAMP antibody-cryptate working solution added to each well using ThermoFisher Multidrop Combi. Incubate at room temperature for 1 hour protected from light.

[1] = HEK293/CRE-Luc cells stably expressing GLP-1 Receptor, 30 min, 37° C.

Chain of GLP-1 Receptor (P43220 24-463): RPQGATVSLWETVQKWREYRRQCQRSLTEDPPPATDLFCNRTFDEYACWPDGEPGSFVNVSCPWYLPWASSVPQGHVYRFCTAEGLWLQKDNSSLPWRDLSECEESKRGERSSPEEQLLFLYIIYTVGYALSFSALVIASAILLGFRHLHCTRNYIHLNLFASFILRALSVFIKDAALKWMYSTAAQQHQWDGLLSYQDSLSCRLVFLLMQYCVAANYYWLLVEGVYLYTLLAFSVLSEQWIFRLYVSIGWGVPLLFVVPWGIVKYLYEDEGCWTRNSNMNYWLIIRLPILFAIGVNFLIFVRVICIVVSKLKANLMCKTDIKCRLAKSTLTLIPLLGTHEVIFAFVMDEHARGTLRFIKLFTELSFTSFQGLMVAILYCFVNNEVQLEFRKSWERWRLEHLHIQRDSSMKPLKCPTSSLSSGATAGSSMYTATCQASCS

GLP1R cAMP Stimulation DR: pEC50 [1] | Structure (SMILES) | further results
 | Cc1ccc(OC2CCN(Cc3nc4ccc(C(=O)O)nc4n3CC3CCO3)CC2)nc1Cc1ccc(Cl)cc1F (stereo in doubt) [Compound 169a, 2-{[4-({6-[(4-chloro-2-fluorophenyl)methyl]-5-methylpyridin-2-yl}oxy)piperidin-1-yl]methyl}-3-{[(2S)-oxetan-2-yl]methyl}-3H-imidazo[4,5-b]pyridine-5-carboxylic acid] | EC50 (HEK293/CRE-Luc cells stably expressing GLP-1 Receptor, 30 min, 37° C., read-out: GLP1R cAMP Stimulation DR: EC50): 0.08 µM
 | O=C(O)c1ccc2nc(CC3CCN(C(=O)c4cccc(Cc5ccc(Cl)cc5F)n4)CC3)n(C[C@@H]3CCO3)c2n1 [Compound 106a, (S)-2-((1-(6-(4-Chloro-2-fluorobenzyl)picolinoyl)piperidin-4-yl)methyl)-3-(oxetan-2-ylmethyl)-3H-imidazo[4,5-b]pyridine-5-carboxylic acid] | GLP1R cAMP Stimulation DR: pEC50 (30 min, 37° C.): 6.33
9.5 | O=C(O)c1ccc2nc(CN3CCC(Oc4nc(Cc5ccc(Cl)cc5F)ccc4F)CC3)n(C[C@@H]3CCO3)c2n1 [Compound 111a, 2-{[4-({6-[(4-chloro-2-fluorophenyl)methyl]-3-fluoropyridin-2-yl}oxy)piperidin-1-yl]methyl}-3-{[(2S)-oxetan-2-yl]methyl}-3H-imidazo[4,5-b]pyridine-5-carboxylic acid] | 
10.4 | O=C(O)c1ccc2nc(CN3CCC(Oc4ccnc(Cc5ccc(Cl)cc5F)n4)CC3)n(C[C@@H]3CCO3)c2n1 [Compound 113a, 2-{[4-({2-[(4-chloro-2-fluorophenyl)methyl]pyrimidin-4-yl}oxy)piperidin-1-yl]methyl}-3-{[(2S)-oxetan-2-yl]methyl}-3H-imidazo[4,5-b]pyridine-5-carboxylic acid] | 
8.8 | O=C(O)c1ccc2nc(CN3CCC(Oc4cc(Cc5ccc(Cl)cc5F)ccc4F)CC3)n(C[C@@H]3CCO3)c2n1 [Compound 114a, 2-[(4-{5-[(4-chloro-2-fluorophenyl)methyl]-2-fluorophenoxy}piperidin-1-yl)methyl]-3-{[(2S)-oxetan-2-yl]methyl}-3H-imidazo[4,5-b]pyridine-5-carboxylic acid] | 
8.6 | O=C(O)c1ccc2nc(CN3CCC(Oc4ccn(Cc5ccc(Cl)cc5F)n4)CC3)n(C[C@@H]3CCO3)c2c1 [Compound 116a, 2-{[4-({1-[(4-chloro-2-fluorophenyl)methyl]-1H-pyrazol-3-yl}oxy)piperidin-1-yl]methyl}-1-{[(2S)-oxetan-2-yl]methyl}-1H-1,3-benzodiazole-6-carboxylic acid] | 
8.2 | O=C(O)c1ccc2nc(CN3CCC(Cc4cccc(Oc5ccc(Cl)cc5F)n4)CC3)n(C[C@@H]3CCO3)c2n1 [Compound 121a, 2-[(4-{[6-(4-chloro-2-fluorophenoxy)pyridin-2-yl]methyl}piperidin-1-yl)methyl]-3-{[(2S)-oxetan-2-yl]methyl}-3H-imidazo[4,5-b]pyridine-5-carboxylic acid] | 
10.4 | O=C(O)c1ccc2nc(CN3CCC(Oc4cccc(Cc5ccc(Cl)cc5)n4)CC3)n(C[C@@H]3CCO3)c2n1 [Compound 124a, (S)-2-((4-((6-(4-chlorobenzyl)pyridin-2-yl)oxy)piperidin-1-yl)methyl)-3-(oxetan-2-ylmethyl)-3H-imidazo[4,5-b]pyridine-5-carboxylic acid] | 
8.9 | O=C(O)c1ccc2nc(CN3CCC(Oc4cccc(Cc5cccc(Cl)c5)n4)CC3)n(C[C@@H]3CCO3)c2n1 [Compound 125a, (S)-2-((4-((6-(3-chlorobenzyl)pyridin-2-yl)oxy)piperidin-1-yl)methyl)-3-(oxetan-2-ylmethyl)-3H-imidazo[4,5-b]pyridine-5-carboxylic acid] | 
 | CC(c1cccc(OC2CCN(Cc3nc4ccc(C(=O)O)nc4n3C[C@@H]3CCO3)CC2)n1)c1ccc(Cl)cc1F (stereo partly drawn) [Compound 128a, 2-{[4-({6-[1-(4-chloro-2-fluorophenyl)ethyl]pyridin-2-yl}oxy)piperidin-1-yl]methyl}-3-{[(2S)-oxetan-2-yl]methyl}-3H-imidazo[4,5-b]pyridine-5-carboxylic acid] | GLP1R cAMP Stimulation DR: pEC50: 8.9
7.3 | O=C(O)c1ccc2nc(CN3CCC(Oc4cccc(Cc5ccc(Cl)cc5F)n4)C3)n(C[C@@H]3CCO3)c2n1 (stereo partly drawn) [Compound 130a, 2-{[3-({6-[(4-chloro-2-fluorophenyl)methyl]pyridin-2-yl}oxy)pyrrolidin-1-yl]methyl}-3-{[(2S)-oxetan-2-yl]methyl}-3H-imidazo[4,5-b]pyridine-5-carboxylic acid] | 
8.6 | Cc1cn(Cc2ccc(Cl)cc2F)nc1OC1CCN(Cc2nc3ccc(C(=O)O)nc3n2C[C@@H]2CCO2)CC1 [Compound 133a, 2-{[4-({1-[(4-chloro-2-fluorophenyl)methyl]-4-methyl-1H-pyrazol-3-yl}oxy)piperidin-1-yl]methyl}-3-{[(2S)-oxetan-2-yl]methyl}-3H-imidazo[4,5-b]pyridine-5-carboxylic acid] | 
 | CC(=O)Nc1ccc2nc(CN3CCC(Oc4cccc(Cc5ccc(Cl)cc5F)n4)CC3)n(C[C@@H]3CCO3)c2c1 [Compound 134a, N-(2-{[4-({6-[(4-chloro-2-fluorophenyl)methyl]pyridin-2-yl}oxy)piperidin-1-yl]methyl}-1-{[(2S)-oxetan-2-yl]methyl}-1H-1,3-benzodiazol-6-yl)acetamide] | GLP1R cAMP Stimulation DR: pEC50 (30 min, 37° C.): 7.2
8.7 | N#Cc1ccc(Cc2cccc(OC3CCN(Cc4nc5ccc(C(=O)O)cc5n4C[C@@H]4CCO4)CC3)n2)c(F)c1 [Compound 135a, 2-{[4-({6-[(4-cyano-2-fluorophenyl)methyl]pyridin-2-yl}oxy)piperidin-1-yl]methyl}-1-{[(2S)-oxetan-2-yl]methyl}-1H-1,3-benzodiazole-6-carboxylic acid] | 
9.4 | N#Cc1ccc(Cc2cccc(OC3CCN(Cc4nc5ccc(C(=O)O)nc5n4C[C@@H]4CCO4)CC3)n2)c(F)c1 [Compound 136a, 2-{[4-({6-[(4-cyano-2-fluorophenyl)methyl]pyridin-2-yl}oxy)piperidin-1-yl]methyl}-3-{[(2S)-oxetan-2-yl]methyl}-3H-imidazo[4,5-b]pyridine-5-carboxylic acid] | 
7.3 | O=C(O)c1ccc2nc(CN3CCC(Oc4nc(Cc5ccc(Cl)cc5F)ccc4Cl)CC3)n(C[C@@H]3CCO3)c2n1 [Compound 137a, 2-{[4-({3-chloro-6-[(4-chloro-2-fluorophenyl)methyl]pyridin-2-yl}oxy)piperidin-1-yl]methyl}-3-{[(2S)-oxetan-2-yl]methyl}-3H-imidazo[4,5-b]pyridine-5-carboxylic acid] | 
8.9 | O=C(O)c1ccc2nc(CN3CCC(n4ccc5ccc(Cc6ccc(Cl)cc6F)nc54)CC3)n(C[C@@H]3CCO3)c2n1 [Compound 140a, 2-[(4-{6-[(4-chloro-2-fluorophenyl)methyl]-1H-pyrrolo[2,3-b]pyridin-1-yl}piperidin-1-yl)methyl]-3-{[(2S)-oxetan-2-yl]methyl}-3H-imidazo[4,5-b]pyridine-5-carboxylic acid] | 
8.8 | O=C(O)c1ccc2nc(CN3CCC(c4cccc5cn(Cc6ccc(Cl)cc6F)nc45)CC3)n(C[C@@H]3CCO3)c2n1 [Compound 142a, (S)-2-((4-(2-(4-chloro-2-fluorobenzyl)-2H-indazol-7-yl)piperidin-1-yl)methyl)-3-(oxetan-2-ylmethyl)-3H-imidazo[4,5-b]pyridine-5-carboxylic acid] | 
 | O=C(O)c1ccc2nc(CN3CCC(c4cccc5nc(Cc6ccc(Cl)cc6F)oc45)CC3)n(C[C@@H]3CCO3)c2n1 [Compound 143a, (S)-2-((4-(2-(4-chloro-2-fluorobenzyl)benzo[d]oxazol-7-yl)piperidin-1-yl)methyl)-3-(oxetan-2-ylmethyl)-3H-imidazo[4,5-b]pyridine-5-carboxylic acid] | GLP1R cAMP Stimulation DR: pEC50 (30 min, 37° C.): 9.3
8.3 | O=C(O)c1ccc2nc(CN3CCC(Oc4ccc(=O)n(Cc5ccc(Cl)cc5F)n4)CC3)n(C[C@@H]3CCO3)c2n1 [Compound 144a, 2-{[4-({1-[(4-chloro-2-fluorophenyl)methyl]-6-oxo-1,6-dihydropyridazin-3-yl}oxy)piperidin-1-yl]methyl}-3-{[(2S)-oxetan-2-yl]methyl}-3H-imidazo[4,5-b]pyridine-5-carboxylic acid] | 
8.5 | O=C(O)c1ccc2nc(CN3CCC(Oc4cccc(Cc5ccc(C(F)(F)F)cc5)n4)CC3)n(C[C@@H]3CCO3)c2n1 [Compound 145a, 3-{[(2S)-oxetan-2-yl]methyl}-2-({4-[(6-{[4-(trifluoromethyl)phenyl]methyl}pyridin-2-yl)oxy]piperidin-1-yl}methyl)-3H-imidazo[4,5-b]pyridine-5-carboxylic acid] | 
9.2 | O=C(O)c1ccc2nc(CN3CCC(Oc4cccc(Cc5ccc(C6CC6)cc5)n4)CC3)n(C[C@@H]3CCO3)c2n1 [Compound 146a, 2-{[4-({6-[(4-cyclopropylphenyl)methyl]pyridin-2-yl}oxy)piperidin-1-yl]methyl}-3-{[(2S)-oxetan-2-yl]methyl}-3H-imidazo[4,5-b]pyridine-5-carboxylic acid] | 
